Measured values published in article PMC7365463, “Oxfendazole mediates macrofilaricidal efficacy against the filarial nematode Litomosoides sigmodontis in vivo and inhibits Onchocerca spec. motility in vitro” (PLoS Neglected Tropical Diseases, 2020).
Where two headings read alike, the source gives them in different places.

Experiments:
mouse lymphoma assay = tested on: mouse lymphoma assay; parameters: method as in earlier work; conditions: in vitro; cited from earlier work
Brugia pahangi [1] = tested on: Brugia pahangi; parameters: method as in Reddy 1983 (Ref. 15); conditions: L3 (SC), Mastomys natalensis, patent phase, necropsy 43 days p.t., ref Reddy 1983 (Ref. 15), cited from earlier work
[2] = tested on: Litomosoides sigmodontis adult worms; assay: L. sigmodontis-infected mice, adult worm burden; format: in vivo
Description: (Whatman 903 Protein […], Sigma-Aldrich, Germany). […] Mice were sacrificed at 75-78 dpi. […] The mice were anesthetized then sacrificed by bleeding (at MNHN) or by an overdose of isoflurane (at IMMIP). At the MNHN, the pleural cavity was washed 10 times with 1 ml of cold phosphate buffered saline (PBS) to collect filariae as previously described. At the IMMIP, the pleural cavity was washed with 1 ml of PBS. In both laboratories the remaining worms were isolated using forceps. The recovered L. sigmodontis adult worms were counted and analyzed by light microscopy to identify males and females.

Litomosoides sigmodontis [3] = assay: Patent L. sigmodontis infection in jirds (adult worms, microfilaremia, embryogenesis); conditions: for jirds with few microfilariae in the peripheral blood: between weeks 14 and 16 after treatment
[4] = tested on: Onchocerca gutturosa adult male worms; assay: O. gutturosa adult male worm 5-day motility assay
[5] = tested on: Onchocerca volvulus pre-adult L5 worms; assay: O. volvulus pre-adult (L5) worm motility assay; conditions: read-out: IC50 of motility inhibition
Description: Cryopreserved O. volvulus L3 were thawed, washed and co-cultured with normal human PBMC as previously described. […] The L4 larvae were then transferred into a transwell (Sigma #CLS3472), ~10 L4 per transwell within a 24-well plate and over a monolayer comprised of Human Umbilical Vein Endothelial Cells (HUVEC; Lonza Inc., Allendale, NJ) seeded at a density of 1 x 10^4 cells per well. The larvae were cultured for 80 days using L4 complete media: 1:1 NCTC-109: MEM-alpha and EBM-2 (Clonetics EBM-2 Lonza# CC-3156) at a 60:40 ratio. […] Medium was exchanged 3 times a week and fresh HUVEC monolayers were prepared weekly. A week prior to performing the drug screening assay, the L4 day 80 that has molted to pre-adult worms, L5, were transferred from the transwells into a small petri dish containing fresh complete media. 7–10 L5 worms were retrieved from the petri dish and placed in new transwells containing a freshly prepared HUVEC monolayer. […] After 14 days of treatment, the drug containing media was replaced by complete media without drug. Continuing this assay for a further 19 days, the worms were supplied with fresh media every 2–3 days and the weekly use of fresh HUVEC monolayers. […] All drug concentrations were tested in duplicate. […] IC50 values were calculated using Graph Pad Prism v8.3.

Brugia pahangi [6] = conditions: jirds, necropsy 5 weeks p.t., ref Surin 1990 (Ref. 11), cited from earlier work
Litomosoides sigmodontis [7] = tested on: Litomosoides sigmodontis; parameters: method as in Reddy 1983 (Ref. 15); conditions: L3 (mite), Mastomys natalensis, patent phase, necropsy 43 days p.t., ref Reddy 1983 (Ref. 15), cited from earlier work
[8] = tested on: Onchocerca gutturosa adult male worms; assay: O. gutturosa adult worm MTT/formazan viability assay; conditions: 120 h
[9] = tested on: Onchocerca lienalis microfilariae; assay: O. lienalis microfilariae 5-day motility assay; conditions: 120 h
mammalian tubulin = tested on: mammalian tubulin; parameters: method as in PMID 6712717, PMID 1554382; conditions: cited from earlier work
[10] = mice, PO 2 x 2.5 mg/kg for 1 day, start 33 dpi, 75 dpi
[11] = mice, PO 2 x 2.5 mg/kg for 5 days, start 33 dpi, 75 dpi
[12] = mice, PO 2 x 2.5 mg/kg for 10 days, start 33 dpi, 75 dpi
[13] = mice, PO BID 2 x 1 mg/kg for 5 days from 35 dpi, necropsy 75 dpi
[14] = mice, PO BID 2 x 5 mg/kg for 5 days from 35 dpi, necropsy 75 dpi

## COC(=O)Nc1nc2ccc([S+]([O-])c3ccccc3)cc2[nH]1 (stereo not drawn) [oxfendazole]
Mouse lymphoma assay
  toxicity in mouse lymphoma assay: did not exhibit toxicity
Brugia pahangi [1]; SC 100mg/kg 5 cons. days
  Reduction of worm burden: 0%
Brugia pahangi [1]; per os 150mg/kg 5 cons. days
  Reduction of worm burden: 33%
[2]; based on subcutaneous treatment at 25 mg/kg in mice, pharmacokinetic analysis
  minimal efficacious concentration: approximately 100 ng/ml
[2]; mice, BID oral 2 x 5.0 mg/kg for 10 consecutive days
  macrofilaricidal efficacy: above 85%
[2]; mice, BID oral 2 x 12.5 mg/kg for 5 days
  macrofilaricidal efficacy: above 85%
[2]; [10]
  median adult worms: 20 worms
  range of adult worms: 1–47 worms
  reduction of the adult worm burden: 0%
[2]; [11]
  median adult worms: 6.5 worms
  range of adult worms: 1–16 worms
  reduction of the adult worm burden: 23.5%
[2]; [12]
  median adult worms: 1 worm
  range of adult worms: 0–4 worms
  reduction of the adult worm burden: 87.2%
[2]; [13]
  adult worm burden reduction: 16.7%
  median adult worms: 5 adult worms
  range of adult worms: 1–12 worms
[2]; [14]
  adult worm burden reduction: 100%
  median adult worms: 0 adult worms
  range of adult worms: 0–5 worms
[2]; mice, PO BID 2 x 12.5 mg/kg for 5 days from 35 dpi, necropsy 78 dpi
  adult worm reduction: 100%
[2]; mice, PO BID 2 x 25 mg/kg for 5 days from 35 dpi, necropsy 75 dpi
  adult worm burden reduction: 100%
[2]; mice, SC 1 mg/kg QD for 5 days from 35 dpi, necropsy 78 dpi
  macrofilaricidal outcome: no significant reduction of the worm burden
[2]; mice, SC 5 mg/kg QD for 5 days from 35 dpi, necropsy 78 dpi
  macrofilaricidal outcome: sterile cure was achieved in all mice except one
[2]; mice, SC 25 mg/kg QD for 5 days from 35 dpi, necropsy 78 dpi
  macrofilaricidal outcome: Sterile cure was achieved
[2]; mice, single oral BID dosing, doses up to 125 mg/kg, start 33 dpi, 75 dpi
  macrofilaricidal outcome: did not lead to a significant reduction
Litomosoides sigmodontis [3]; 2 x 5 mg/kg BID PO 10 days
  jirds with few microfilariae in the peripheral blood: one jird out of four
Litomosoides sigmodontis [3]; 2 x 12.5 mg/kg BID PO 10 days
  jirds with few microfilariae in the peripheral blood: one jird out of five
Litomosoides sigmodontis [3]; jirds, 2 x 5 mg/kg BID PO 10 days, 16 weeks after treatment start
  embryogenesis in recovered female worms (embryogram): embryogenesis was inhibited
Litomosoides sigmodontis [3]; jirds, PO BID 2 x 5 mg/kg for 10 days from 12 wpi, 16 weeks after treatment start
  animals with complete clearance of adult worms: two animals out of four
Litomosoides sigmodontis [3]; jirds, PO BID 2 x 12.5 mg/kg for 10 days from 12 wpi, 16 weeks after treatment start
  animals with complete clearance of adult worms: four animals out of five
Litomosoides sigmodontis [3]; jirds, both oxfendazole groups (2 x 12.5 and 2 x 5 mg/kg BID PO 10 days), 3 weeks after treatment
  microfilariae cleared from the peripheral blood: more than 99%
[4]; 1.25 x 10^-5 M, 24 h
  Motility Reduction (%): 10%
[4]; 1.25 x 10^-5 M, 48 h
  Motility Reduction (%): 3%
[4]; 1.25 x 10^-5 M, 72 h
  Motility Reduction (%): 23%
[4]; 1.25 x 10^-5 M, 96 h
  Motility Reduction (%): 31%
[4]; 1.25 x 10^-5 M, 120 h
  Motility Reduction (%): 40%
[4]; 3.1 x 10^-6 M, 24 h
  Motility Reduction (%): 10%
[4]; 3.1 x 10^-6 M, 48 h
  Motility Reduction (%): 5%
[4]; 3.1 x 10^-6 M, 72 h
  Motility Reduction (%): 33%
[4]; 3.1 x 10^-6 M, 96 h
  Motility Reduction (%): 31%
[4]; 3.1 x 10^-6 M, 120 h
  Motility Reduction (%): 40%
[4]; 5.0 x 10^-5 M, 24 h
  Motility Reduction (%): 16%
[4]; 5.0 x 10^-5 M, 48 h
  Motility Reduction (%): 9%
[4]; 5.0 x 10^-5 M, 72 h
  Motility Reduction (%): 29%
[4]; 5.0 x 10^-5 M, 96 h
  Motility Reduction (%): 33%
[4]; 5.0 x 10^-5 M, 120 h
  Motility Reduction (%): 44%
[4]; 7.8 x 10^-7 M, 24 h
  Motility Reduction (%): 4%
[4]; 7.8 x 10^-7 M, 48 h
  Motility Reduction (%): 5%
[4]; 7.8 x 10^-7 M, 72 h
  Motility Reduction (%): 20%
[4]; 7.8 x 10^-7 M, 96 h
  Motility Reduction (%): 31%
[4]; 7.8 x 10^-7 M, 120 h
  Motility Reduction (%): 38%
[5]; 336 h, day 14 (14 days drug exposure)
  IC50: 7590 nM
[5]; day 19 of culture (14 days drug, 5 days without drug)
  IC50: 28.6 nM
[5]; day 33 of culture (14 days drug, 19 days without drug)
  IC50: 10.2 nM
Brugia pahangi [6]; 15Ad (IP), SC 50-25-12.5mg/kg 5 cons. days, 4 days p.i.
  Reduction of worm burden: 100%
Brugia pahangi [6]; 50L3 (IP), SC 25mg/kg 5 cons. days, 70 days p.i.
  Reduction of worm burden: 93.5%
Brugia pahangi [6]; 50L3 (IP), SC 50mg/kg 5 cons. days, 70 days p.i.
  Reduction of worm burden: 100%
Litomosoides sigmodontis [7]; SC 100mg/kg 5 cons. days
  Reduction of worm burden: 100%
Litomosoides sigmodontis [7]; per os 150mg/kg 5 cons. days
  Reduction of worm burden: 0%
[8]; 1.25 x 10^-5 M
  MTT Reduction (%): 12%
[8]; 3.1 x 10^-6 M
  MTT Reduction (%): 17%
[8]; 5.0 x 10^-5 M
  MTT Reduction (%): 11%
[8]; 7.8 x 10^-7 M
  MTT Reduction (%): 7%
[9]; 1.25·10^−5 M
  microfilariae motility decrease: 53%
[9]; 5·10^−5 M
  microfilariae motility decrease: 67%
[9]; concentrations lower than 1.25·10^−5 M
  effect on microfilariae motility: No effect
Mammalian tubulin
  inhibition of mammalian tubulin polymerization: poor inhibition
